Data set [1] has as its system PLP injected animals (acute EAE, model for MS). Description: Acute EAE induced with PLP 139-151, clinical signs scoring. Format: in vivo, SJL female mice.
In data set [2] the test system is PC12 neurons. Description: MPP+ toxicity experiment, LDH leakage assay in NGF-differentiated PC12 cells. The data set is classed as cell-based. As to the method: PC12 cells were grown in Dulbecco's modified Eagle's medium (DMEM), supplemented with 7% fetal calf serum, 7% horse serum, 100 μg/ml streptomycin, and 100 U/ml penicillin. The cultures were maintained in an incubator at 37° C. in a humidified atmosphere of 6% CO2. The growth medium was changed twice weekly and the cultures were split at 1:6 ratio once a week [Abu-Raya et al. J. Neurosci. Methods 50:197-203 (1993)].
For differentiation, an identical number of PC12 cells (3.75×10^5 cells) was plated on 6-wells plates coated with rat tail type I collagen (0.1 mg/ml) to promote cell adhesion [Abu-Raya et al Rasagiline, a monoamine oxidase-B inhibitor, protects NGF-differentiated PC12 cells against oxygen-glucose deprivation. J. Neurosci. Res. 58:456-463 (1999)]. The differentiation of the cultures was induced by treatment with NGF (50 ng/ml), added every 48 hr for a period of 7-8 days.
Cell death was evaluated by measuring the leakage of LDH into the growth medium as previously described [Abu-Raya et al. J. Neurosci. Res. 58:456-463, (1999)]. Samples of 50 μl of the growth medium were collected from each well and centrifuged at 3,500 rpm for 5 min at 25° C.; the supernatant was collected and LDH release was measured using a TRACE LD-L reagent. LDH activity was determined using an ELISA reader (TECAN, SPECTRAFluor PLUS, Grodig, Salzburg, Austria) at 340 nm by following the rate of conversion of oxidized nicotinamide adenine dinucleotide (NAD^+) to the reduced form of (NADH). MPP^+-induced LDH release was expressed as 100% of toxicity compared to control-untreated cultures. Each experiment was performed three times in duplicates (n=6).
On the day of the experiment, the NGF containing medium was replaced with fresh one. […]
MPP^+ was dissolved in growth medium containing NGF and added to each well in a final concentration of 1500 μM. […] The experiment was accomplished when percentage of cell death was in the range 30-60%, measured by the release of LDH into the medium. […]

SMILES strings stand for the structures.

On to `CC1(C)CC(N)CC(C)(C)N1[O]` [TMN, 2,2,6,6-tetramethylpiperidine-4-amino-1-oxyl], for which the “effect on clinical signs of MS, in words” value in data set [1] (SSL-TMN i.v., 80 nm, compared with Copaxone, Betaferon, empty SSL, free TMN, FIG. 2) is recorded as “no observed effect against the disease”. Further, in data set [1] (Table 4B), the “#dead” value is listed as 1, the MDD was 19 ± 1.2, the MDO is given as 14 ± 0.5 and the MMS was 3.9 ± 0.53. For the same molecule, the Mean score in data set [1] (Table 4B) is given as 3.5 ± 0.21. Also, the Incidence in data set [1] (Table 4B, free TMN at same concentration as encapsulated in the liposomes) is listed as 5/5. Besides, the “toxicity to the cells at higher concentration (bell shape)” value in data set [2] (500 μM-1000 μM TMN) is “toxic to the cells”. Moreover, in data set [2] (1500 μM MPP+, TMN 0.1-100 μM added 1 hr before, LDH after 48 hr, FIG. 1), the “protection of PC12 neurons from oxidative damage inflicted by MPP+ (LDH release)” value is listed as “protects PC12 neurons from oxidative damage”. For the same molecule, the “most effective TMN concentration for protection against MPP+” value in data set [2] (1500 μM MPP+, dose response 0.1-1000 μM) was 100 µM.

For the origin of these results see US20080063702A1, “Liposomal Formulations Comprising an Amphipathic Weak Base Like Tempamine for Treatment of Neurodegenerative Conditions” (priority 2004, published 2008).
